Species on record: Rattus norvegicus
Experiment: DrugMatrix - Regimen: Daily Repeat
Type: toxicity, organism-based, Sprague-Dawley
Parameters: regimen Daily Repeat, gender Male, age 6-8 weeks
Settings: in vivo, po, route oral GAVAGE, vehicle .5 % CMC; for ABSOLUTE BASOPHIL / ABSOLUTE EOSINOPHIL / ABSOLUTE LYMPHOCYTE / ABSOLUTE MONOCYTE / ABSOLUTE SEGMENTED NEUTROPHIL / BASOPHIL / EOSINOPHIL / ERYTHROCYTE COUNT / HEMATOCRIT / HEMOGLOBIN / LEUKOCYTE COUNT / LYMPHOCYTE / MEAN CORPUSCULAR HEMOGLOBIN / MEAN CORPUSCULAR HEMOGLOBIN CONCENTRATION / MEAN CORPUSCULAR VOLUME / MONOCYTE / NEUTROPHIL / NUCLEATED RED BLOOD CELLS / PLATELET COUNT: tissue Blood; for ALANINE AMINOTRANSFERASE / ALBUMIN / ALKALINE PHOSPHATASE / ASPARTATE AMINOTRANSFERASE / BLOOD UREA NITROGEN / CARBON DIOXIDE / CHLORIDE / CHOLESTEROL / CREATINE PHOSPHOKINASE / CREATININE / GLUCOSE / LACTATE DEHYDROGENASE / LIPASE / PHOSPHORUS / POTASSIUM / SODIUM / TOTAL BILIRUBIN / TOTAL PROTEIN / URIC ACID: tissue Plasma
[1] = 200 mg/kg, 72 h, dose level Low, time 3 day
[2] = 200 mg/kg, 120 h, dose level Low, time 5 day
[3] = 1300 mg/kg, 72 h, dose level High, time 3 day
[4] = 1300 mg/kg, 120 h, dose level High, time 5 day

With `NC(=O)c1ccccc1O` [SALICYLAMIDE] the “ABSOLUTE BASOPHIL” value [1] was 0 CELLS/uL, the “ABSOLUTE EOSINOPHIL” value [1] was 126.67 CELLS/uL and the “ABSOLUTE LYMPHOCYTE” value [1] was 13749 CELLS/uL. The “ABSOLUTE MONOCYTE” value [1] was 274.67 CELLS/uL, the “ABSOLUTE SEGMENTED NEUTROPHIL” value [1] was 2049.67 CELLS/uL and the BASOPHIL [1] was 0%. The EOSINOPHIL [1] was 0.67%, the “ERYTHROCYTE COUNT” value [1] was 5.79 x10E6/uL and the HEMATOCRIT [1] was 37.07%. For the same compound, the HEMOGLOBIN [1] was 13.9 G/DL, the “LEUKOCYTE COUNT” value [1] was 16.2 x10E3/uL and the LYMPHOCYTE [1] was 85%. For the same compound, the “MEAN CORPUSCULAR HEMOGLOBIN” value [1] was 24.03 pg, the “MEAN CORPUSCULAR HEMOGLOBIN CONCENTRATION” value [1] was 37.5 G/DL and the “MEAN CORPUSCULAR VOLUME” value [1] was 64.07 fL. For the same compound, the MONOCYTE [1] was 1.67%, the NEUTROPHIL [1] was 12.67% and the “NUCLEATED RED BLOOD CELLS” value [1] was 0 /100WBC. For the same compound, the “PLATELET COUNT” value [1] was 1342.33 x10E3/uL, the “ALANINE AMINOTRANSFERASE” value [1] was 47 u/L and the ALBUMIN [1] was 4.23 G/DL. For the same compound, the “ALKALINE PHOSPHATASE” value [1] was 337 u/L, the “ASPARTATE AMINOTRANSFERASE” value [1] was 92 u/L and the “BLOOD UREA NITROGEN” value [1] was 14.67 mg/dL. For the same compound, the “CARBON DIOXIDE” value [1] was 28.67 mmol/L, the CHLORIDE [1] was 102.33 MEQ/L and the CHOLESTEROL [1] was 91.33 mg/dL. For the same compound, the “CREATINE PHOSPHOKINASE” value [1] was 270 u/L, the CREATININE [1] was 0.24 mg/dL and the GLUCOSE [1] was 149.67 mg/dL. The “LACTATE DEHYDROGENASE” value [1] was 413.33 u/L, the LIPASE [1] was 9.67 u/L and the PHOSPHORUS [1] was 12.53 mg/dL. The POTASSIUM [1] was 7.01 MEQ/L, the SODIUM [1] was 146.23 MEQ/L and the “TOTAL BILIRUBIN” value [1] was 0.2 mg/dL. The “TOTAL PROTEIN” value [1] was 5.93 G/DL, the “URIC ACID” value [1] was 1.77 mg/dL and the “ABSOLUTE BASOPHIL” value [2] was 0 CELLS/uL. For the same compound, the “ABSOLUTE EOSINOPHIL” value [2] was 0 CELLS/uL, the “ABSOLUTE LYMPHOCYTE” value [2] was 13314 CELLS/uL and the “ABSOLUTE MONOCYTE” value [2] was 96.33 CELLS/uL. The “ABSOLUTE SEGMENTED NEUTROPHIL” value [2] was 1389.67 CELLS/uL, the BASOPHIL [2] was 0% and the EOSINOPHIL [2] was 0%. For the same compound, the “ERYTHROCYTE COUNT” value [2] was 5.67 x10E6/uL, the HEMATOCRIT [2] was 34.73% and the HEMOGLOBIN [2] was 13.53 G/DL. For the same compound, the “LEUKOCYTE COUNT” value [2] was 14.8 x10E3/uL, the LYMPHOCYTE [2] was 90% and the “MEAN CORPUSCULAR HEMOGLOBIN” value [2] was 24 pg. For the same compound, the “MEAN CORPUSCULAR HEMOGLOBIN CONCENTRATION” value [2] was 39 G/DL, the “MEAN CORPUSCULAR VOLUME” value [2] was 61.53 fL and the MONOCYTE [2] was 0.67%. For the same compound, the NEUTROPHIL [2] was 9.33%, the “NUCLEATED RED BLOOD CELLS” value [2] was 0 /100WBC and the “PLATELET COUNT” value [2] was 1300.67 x10E3/uL. The “ALANINE AMINOTRANSFERASE” value [2] was 41.67 u/L, the ALBUMIN [2] was 4.13 G/DL and the “ALKALINE PHOSPHATASE” value [2] was 340 u/L. The “ASPARTATE AMINOTRANSFERASE” value [2] was 77.67 u/L, the “BLOOD UREA NITROGEN” value [2] was 15.33 mg/dL and the “CARBON DIOXIDE” value [2] was 27 mmol/L. For the same compound, the CHLORIDE [2] was 104 MEQ/L, the CHOLESTEROL [2] was 78.33 mg/dL and the “CREATINE PHOSPHOKINASE” value [2] was 235.33 u/L. The CREATININE [2] was 0.22 mg/dL, the GLUCOSE [2] was 151 mg/dL and the “LACTATE DEHYDROGENASE” value [2] was 176 u/L. The LIPASE [2] was 9.33 u/L, the PHOSPHORUS [2] was 12.43 mg/dL and the POTASSIUM [2] was 6.83 MEQ/L. The SODIUM [2] was 145.3 MEQ/L, the “TOTAL BILIRUBIN” value [2] was 0.13 mg/dL and the “TOTAL PROTEIN” value [2] was 5.83 G/DL. The “URIC ACID” value [2] was 1.57 mg/dL, the “ABSOLUTE BASOPHIL” value [3] was 0 CELLS/uL and the “ABSOLUTE EOSINOPHIL” value [3] was 0 CELLS/uL. For the same compound, the “ABSOLUTE LYMPHOCYTE” value [3] was 15293.5 CELLS/uL, the “ABSOLUTE MONOCYTE” value [3] was 351 CELLS/uL and the “ABSOLUTE SEGMENTED NEUTROPHIL” value [3] was 1905.5 CELLS/uL. The BASOPHIL [3] was 0%, the EOSINOPHIL [3] was 0% and the “ERYTHROCYTE COUNT” value [3] was 6 x10E6/uL. For the same compound, the HEMATOCRIT [3] was 36.9%, the HEMOGLOBIN [3] was 14.4 G/DL and the “LEUKOCYTE COUNT” value [3] was 17.55 x10E3/uL. For the same compound, the LYMPHOCYTE [3] was 87%, the “MEAN CORPUSCULAR HEMOGLOBIN” value [3] was 24 pg and the “MEAN CORPUSCULAR HEMOGLOBIN CONCENTRATION” value [3] was 39 G/DL. For the same compound, the “MEAN CORPUSCULAR VOLUME” value [3] was 61.55 fL, the MONOCYTE [3] was 2% and the NEUTROPHIL [3] was 11%. For the same compound, the “NUCLEATED RED BLOOD CELLS” value [3] was 0 /100WBC, the “PLATELET COUNT” value [3] was 1429 x10E3/uL and the “ALANINE AMINOTRANSFERASE” value [3] was 90 u/L. For the same compound, the ALBUMIN [3] was 4.2 G/DL, the “ALKALINE PHOSPHATASE” value [3] was 469 u/L and the “ASPARTATE AMINOTRANSFERASE” value [3] was 83 u/L. For the same compound, the “BLOOD UREA NITROGEN” value [3] was 14 mg/dL, the “CARBON DIOXIDE” value [3] was 30.5 mmol/L and the CHLORIDE [3] was 101 MEQ/L. The CHOLESTEROL [3] was 71.5 mg/dL, the “CREATINE PHOSPHOKINASE” value [3] was 167.5 u/L and the CREATININE [3] was 0.12 mg/dL. For the same compound, the GLUCOSE [3] was 146.5 mg/dL, the “LACTATE DEHYDROGENASE” value [3] was 166 u/L and the LIPASE [3] was 9.5 u/L. For the same compound, the PHOSPHORUS [3] was 12.5 mg/dL, the POTASSIUM [3] was 6.86 MEQ/L and the SODIUM [3] was 145.55 MEQ/L. The “TOTAL BILIRUBIN” value [3] was 0.2 mg/dL, the “TOTAL PROTEIN” value [3] was 5.75 G/DL and the “URIC ACID” value [3] was 1.65 mg/dL. For the same compound, the “ABSOLUTE BASOPHIL” value [4] was 0 CELLS/uL, the “ABSOLUTE EOSINOPHIL” value [4] was 33.67 CELLS/uL and the “ABSOLUTE LYMPHOCYTE” value [4] was 13088.67 CELLS/uL. The “ABSOLUTE MONOCYTE” value [4] was 0 CELLS/uL, the “ABSOLUTE SEGMENTED NEUTROPHIL” value [4] was 1544.33 CELLS/uL and the BASOPHIL [4] was 0%. For the same compound, the EOSINOPHIL [4] was 0.33%, the “ERYTHROCYTE COUNT” value [4] was 5.56 x10E6/uL and the HEMATOCRIT [4] was 35.47%. The HEMOGLOBIN [4] was 14.03 G/DL, the “LEUKOCYTE COUNT” value [4] was 14.67 x10E3/uL and the LYMPHOCYTE [4] was 88.67%. For the same compound, the “MEAN CORPUSCULAR HEMOGLOBIN” value [4] was 25.27 pg, the “MEAN CORPUSCULAR HEMOGLOBIN CONCENTRATION” value [4] was 39.6 G/DL and the “MEAN CORPUSCULAR VOLUME” value [4] was 63.83 fL. For the same compound, the MONOCYTE [4] was 0%, the NEUTROPHIL [4] was 11% and the “NUCLEATED RED BLOOD CELLS” value [4] was 0.33 /100WBC. For the same compound, the “PLATELET COUNT” value [4] was 1393 x10E3/uL, the “ALANINE AMINOTRANSFERASE” value [4] was 71 u/L and the ALBUMIN [4] was 4.07 G/DL. For the same compound, the “ALKALINE PHOSPHATASE” value [4] was 356.67 u/L, the “ASPARTATE AMINOTRANSFERASE” value [4] was 83.33 u/L and the “BLOOD UREA NITROGEN” value [4] was 16 mg/dL. For the same compound, the “CARBON DIOXIDE” value [4] was 23 mmol/L, the CHLORIDE [4] was 106.33 MEQ/L and the CHOLESTEROL [4] was 70.33 mg/dL. For the same compound, the “CREATINE PHOSPHOKINASE” value [4] was 456 u/L, the CREATININE [4] was 0.21 mg/dL and the GLUCOSE [4] was 189.33 mg/dL. The “LACTATE DEHYDROGENASE” value [4] was 144.67 u/L, the LIPASE [4] was 10 u/L and the PHOSPHORUS [4] was 12.87 mg/dL. The POTASSIUM [4] was 5.46 MEQ/L, the SODIUM [4] was 149.13 MEQ/L and the “TOTAL BILIRUBIN” value [4] was 0.27 mg/dL. The “TOTAL PROTEIN” value [4] was 5.83 G/DL and the “URIC ACID” value [4] was 1.7 mg/dL.
